Assay: xn = mol fraction of the nth substance listed
Settings: 101 kPa, Liquid; for viscosity: Concentric cylinders viscometry; for speed of sound: Single path-length method; for mass density: Vibrating tube method

CCCCCCCCCCCCCCCC [hexadecane] + CCCCO
Settings	mass density [kg/m3]	speed of sound [m/s]	viscosity [mPa·s]
293.15 K, x2 = 0	773.35	1357.4	3.408
293.15 K, x2 = 0.1	773.9	1349.6	3.204
293.15 K, x2 = 0.2	774.92	1343.3	3.109
293.15 K, x2 = 0.3	776.24	1336.8	2.998
293.15 K, x2 = 0.4	777.91	1329.7	2.935
293.15 K, x2 = 0.5	780.07	1322	2.9
293.15 K, x2 = 0.6	782.88	1313.4	2.854
293.15 K, x2 = 0.7	786.53	1303.1	2.874
293.15 K, x2 = 0.8	791.49	1290.7	2.875
293.15 K, x2 = 0.9	798.54	1275.4	2.856
298.15 K, x2 = 0	769.87	1338.5	3.035
298.15 K, x2 = 0.1	770.35	1330.6	2.852
298.15 K, x2 = 0.2	771.34	1324.4	2.77
298.15 K, x2 = 0.3	772.63	1317.9	2.675
298.15 K, x2 = 0.4	774.28	1310.8	2.616
298.15 K, x2 = 0.5	776.41	1303.2	2.578
298.15 K, x2 = 0.6	779.18	1294.7	2.535
298.15 K, x2 = 0.7	782.81	1284.7	2.543
298.15 K, x2 = 0.8	787.73	1272.7	2.541
298.15 K, x2 = 0.9	794.77	1257.8	2.52
303.15 K, x2 = 0	766.4	1319.8	2.708
303.15 K, x2 = 0.1	766.82	1311.8	2.544
303.15 K, x2 = 0.2	767.77	1305.6	2.471
303.15 K, x2 = 0.3	769.03	1299.1	2.387
303.15 K, x2 = 0.4	770.64	1292.1	2.332
303.15 K, x2 = 0.5	772.74	1284.6	2.294
303.15 K, x2 = 0.6	775.47	1276.2	2.249
303.15 K, x2 = 0.7	779.07	1266.4	2.246
303.15 K, x2 = 0.8	783.97	1254.7	2.244
303.15 K, x2 = 0.9	790.97	1240.2	2.219
308.15 K, x2 = 0	762.95	1301.3	2.432
308.15 K, x2 = 0.1	763.28	1293.2	2.283
308.15 K, x2 = 0.2	764.19	1287	2.217
308.15 K, x2 = 0.3	765.42	1280.5	2.144
308.15 K, x2 = 0.4	766.99	1273.5	2.092
308.15 K, x2 = 0.5	769.05	1266.1	2.053
308.15 K, x2 = 0.6	771.75	1257.8	2.012
308.15 K, x2 = 0.7	775.31	1248.2	2.001
308.15 K, x2 = 0.8	780.17	1236.8	1.992
308.15 K, x2 = 0.9	787.14	1222.8	1.967
313.15 K, x2 = 0	759.49	1283.1	2.199
313.15 K, x2 = 0.1	759.74	1274.9	2.064
313.15 K, x2 = 0.2	760.61	1268.5	2.004
313.15 K, x2 = 0.3	761.8	1262.1	1.939
313.15 K, x2 = 0.4	763.33	1255.1	1.89
313.15 K, x2 = 0.5	765.35	1247.7	1.851
313.15 K, x2 = 0.6	768.01	1239.6	1.811
313.15 K, x2 = 0.7	771.52	1230.1	1.794
313.15 K, x2 = 0.8	776.34	1219	1.781
313.15 K, x2 = 0.9	783.27	1205.5	1.755
318.15 K, x2 = 0	756.05	1265	1.996
318.15 K, x2 = 0.1	756.2	1256.7	1.871
318.15 K, x2 = 0.2	757.02	1250.3	1.815
318.15 K, x2 = 0.3	758.17	1243.8	1.756
318.15 K, x2 = 0.4	759.66	1236.9	1.709
318.15 K, x2 = 0.5	761.63	1229.5	1.67
318.15 K, x2 = 0.6	764.24	1221.4	1.631
318.15 K, x2 = 0.7	767.71	1212.1	1.613
318.15 K, x2 = 0.8	772.49	1201.3	1.593
318.15 K, x2 = 0.9	779.38	1188.2	1.564
323.15 K, x2 = 0	752.61	1247.1	1.823
323.15 K, x2 = 0.1	752.66	1238.6	1.707
323.15 K, x2 = 0.2	753.42	1232.1	1.654
323.15 K, x2 = 0.3	754.53	1225.7	1.6
323.15 K, x2 = 0.4	755.97	1218.8	1.556
323.15 K, x2 = 0.5	757.89	1211.4	1.517
323.15 K, x2 = 0.6	760.45	1203.4	1.479
323.15 K, x2 = 0.7	763.86	1194.2	1.452
323.15 K, x2 = 0.8	768.59	1183.6	1.435
323.15 K, x2 = 0.9	775.44	1171	1.404
328.15 K, x2 = 0	749.18	1229.3	1.671
328.15 K, x2 = 0.1	749.13	1220.8	1.563
328.15 K, x2 = 0.2	749.82	1214.2	1.514
328.15 K, x2 = 0.3	750.87	1207.7	1.464
328.15 K, x2 = 0.4	752.26	1200.8	1.422
328.15 K, x2 = 0.5	754.13	1193.4	1.383
328.15 K, x2 = 0.6	756.63	1185.4	1.346
328.15 K, x2 = 0.7	759.99	1176.4	1.317
328.15 K, x2 = 0.8	764.66	1166	1.297
328.15 K, x2 = 0.9	771.46	1153.8	1.264
333.15 K, x2 = 0	745.74	1211.8	1.537
333.15 K, x2 = 0.1	745.58	1203.1	1.437
333.15 K, x2 = 0.2	746.2	1196.3	1.389
333.15 K, x2 = 0.3	747.19	1189.8	1.343
333.15 K, x2 = 0.4	748.53	1182.9	1.303
333.15 K, x2 = 0.5	750.34	1175.6	1.266
333.15 K, x2 = 0.6	752.78	1167.6	1.23
333.15 K, x2 = 0.7	756.08	1158.7	1.199
333.15 K, x2 = 0.8	760.69	1148.5	1.177
333.15 K, x2 = 0.9	767.42	1136.6	1.143
338.15 K, x2 = 0	742.31	1194.4	1.421
338.15 K, x2 = 0.1	742.04	1185.5	1.328
338.15 K, x2 = 0.2	742.57	1178.7	1.282
338.15 K, x2 = 0.3	743.51	1172.1	1.238
338.15 K, x2 = 0.4	744.78	1165.2	1.2
338.15 K, x2 = 0.5	746.53	1157.9	1.163
338.15 K, x2 = 0.6	748.9	1149.9	1.127
338.15 K, x2 = 0.7	752.13	1141	1.095
338.15 K, x2 = 0.8	756.66	1131	1.071
338.15 K, x2 = 0.9	763.33	1119.5	1.036
343.15 K, x2 = 0	738.88	1177.5	1.316
343.15 K, x2 = 0.1	738.5	1168.3	1.23
343.15 K, x2 = 0.2	738.94	1161.2	1.185
343.15 K, x2 = 0.3	739.8	1154.6	1.144
343.15 K, x2 = 0.4	741.01	1147.7	1.107
343.15 K, x2 = 0.5	742.68	1140.3	1.071
343.15 K, x2 = 0.6	744.98	1132.3	1.037
343.15 K, x2 = 0.7	748.13	1123.5	1.004
343.15 K, x2 = 0.8	752.59	1113.6	0.9782
343.15 K, x2 = 0.9	759.19	1102.4	0.9425

Source: the NIST ThermoML archive (doi:10.1016/j.fluid.2018.05.028)
